Reference: US6355799B1, “Substituted benzene compounds, process for their preparation, and herbicidal and defoliant compositions containing them” (ISK Americas Incorporated, priority 1997, dated 2002)

Key:
Assay type in all cases: in vivo
[1] = system: ivyleaf morningglory (Ipomoea hederacea, IPOHE); test: Pre-emerge test, greenhouse herbicide activity screening; details: rating scale 0-100, 14 days after application
Summary of the method: (§1)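 Sandy loam pots; pre-emerge: sown 1 d pre-spray, surface-watered after, then bottom-watered. Post-emerge: sown 8–21 d before, 2–3 leaf stage, + 0.25% v/v NIS, bottom-watered. Acetone, 187 l/ha track spray, 15–1000 g ai/ha. 0–100 injury score, day 14.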

[2] = system: large crabgrass (Digitaria sanguinalis, DIGSA); test: as above; details: rating scale 0-100, 14 days after application
Summary of the method: as §1

[3] = system: barnyardgrass (Echinochloa crus-galli, ECHCG); test: as above; details: rating scale 0-100, 14 days after application
Summary of the method: as §1

[4] = system: green foxtail (Setaria viridis, SETVI); test: as above; details: rating scale 0-100, 14 days after application
Summary of the method: as §1

[5] = system: johnsongrass (Sorghum halepense, SORHA); test: as above; details: rating scale 0-100, 14 days after application
Summary of the method: as §1

[6] = system: velvetleaf (Abutilon theophrasti, ABUTH); test: as above; details: rating scale 0-100, 14 days after application
Summary of the method: as §1

[7] = system: sicklepod (Cassia obtusifolia, CASOB); test: as above; details: rating scale 0-100, 14 days after application
Summary of the method: as §1

[8] = system: lambsquarters (Chenopodium album, CHEAL); test: as above; details: rating scale 0-100, 14 days after application
Summary of the method: as §1

[9] = system: field corn (Zea mays L., var. Dekalb 535, CORN); test: Pre-emerge test, crop safety; details: rating scale 0-100, 14 days after application
Summary of the method: (§2)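 Applied at 15–1000 g ai/ha from acetone in 187 l/ha spray volume. Post-emergence applications included 0.25% v/v non-ionic surfactant and reached plants sown 8–21 days before. Pre-emergence applications were incorporated by surface watering. Efficacy or crop damage was rated on a 0–100 scale after 14 days.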

[10] = system: upland rice (Oryza sp., var. Tebonnet, RICE); test: Pre-emerge test, crop safety; details: rating scale 0-100, 14 days after application
Summary of the method: as §2

[11] = system: redroot pigweed (Amaranthus retroflexus, AMARE); test: Pre-emerge test, greenhouse herbicide activity screening; details: rating scale 0-100, 14 days after application
Summary of the method: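 Plants grown in 10 cm pots of sandy loam mix received acetone-dissolved compounds through a moving flat-fan nozzle. Doses ranged from 15 to 1000 g ai/ha. Pre-emerge pots were seeded one day earlier, post-emerge pots 8–21 days earlier. Fourteen days on, each pot was graded 0–100 for damage.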

[12] = system: ivyleaf morningglory (Ipomoea hederacea, IPOHE); test: Post-emerge test, greenhouse herbicide activity screening; details: rating scale 0-100 (0 no damage, 100 complete death), 14 days after application
Summary of the method: (§3)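 Rating: 0–100 visual injury, 14 DAA. Application: acetone, 187 l/ha, 15–1000 g ai/ha, flat-fan track sprayer with nozzle 40–45 cm above soil or canopy. Post-emerge runs used 0.25% v/v surfactant on 2–3 leaf plants.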

[13] = system: common ragweed (Ambrosia artemisizfolia L., AMBEL); test: as above; details: rating scale 0-100 (0 no damage, 100 complete death), 14 days after application
Summary of the method: as §3

[14] = system: large crabgrass (Digitaria sanguinalis, DIGSA); test: as above; details: rating scale 0-100 (0 no damage, 100 complete death), 14 days after application
Summary of the method: as §3

[15] = system: barnyardgrass (Echinochloa crus-galli, ECHCG); test: as above; details: rating scale 0-100 (0 no damage, 100 complete death), 14 days after application
Summary of the method: as §3

[16] = system: green foxtail (Setaria viridis, SETVI); test: as above; details: rating scale 0-100 (0 no damage, 100 complete death), 14 days after application
Summary of the method: as §3

[17] = system: johnsongrass (Sorghum halepense, SORHA); test: as above; details: rating scale 0-100 (0 no damage, 100 complete death), 14 days after application
Summary of the method: as §3

[18] = system: velvetleaf (Abutilon theophrasti, ABUTH); test: as above; details: rating scale 0-100 (0 no damage, 100 complete death), 14 days after application
Summary of the method: as §3

[19] = system: sicklepod (Cassia obtusifolia, CASOB); test: as above; details: rating scale 0-100 (0 no damage, 100 complete death), 14 days after application
Summary of the method: as §3

[20] = system: redroot pigweed (Amaranthus retroflexus, AMARE); test: as above; details: rating scale 0-100 (0 no damage, 100 complete death), 14 days after application
Summary of the method: as §3

[21] = system: lambsquarters (Chenopodium album, CHEAL); test: as above; details: rating scale 0-100 (0 no damage, 100 complete death), 14 days after application
Summary of the method: as §3

[22] = system: field corn (Zea mays L., var. Dekalb 535, CORN); test: Post-emerge test, crop safety; details: rating scale 0-100 (0 no damage, 100 complete death), 14 days after application
Summary of the method: as §1

[23] = system: upland rice (Oryza sp., var. Tebonnet, RICE); test: Post-emerge test, crop safety; details: rating scale 0-100 (0 no damage, 100 complete death), 14 days after application
Summary of the method: as §1

## COc1c(Cl)cc(F)c(-n2c(=O)cc(C(F)(F)F)n(C)c2=O)c1CC(Cl)C(=O)OCC(C)C (single isomer, unassigned) [14-14]
[1]; 63 g ai/ha
  Pre-emerge herbicidal activity, phytotoxicity rating IPOHE: 0
[1]; 250 g ai/ha
  Pre-emerge herbicidal activity, phytotoxicity rating IPOHE: 20
[2]; 63 g ai/ha
  Pre-emerge herbicidal activity, phytotoxicity rating DIGSA: 50
[2]; 250 g ai/ha
  Pre-emerge herbicidal activity, phytotoxicity rating DIGSA: 90
[3]; 63 g ai/ha
  Pre-emerge herbicidal activity, phytotoxicity rating ECHCG: 0
[3]; 250 g ai/ha
  Pre-emerge herbicidal activity, phytotoxicity rating ECHCG: 10
[4]; 63 g ai/ha
  Pre-emerge herbicidal activity, phytotoxicity rating SETVI: 0
[4]; 250 g ai/ha
  Pre-emerge herbicidal activity, phytotoxicity rating SETVI: 50
[5]; 63 g ai/ha
  Pre-emerge herbicidal activity, phytotoxicity rating SORHA: 0
[5]; 250 g ai/ha
  Pre-emerge herbicidal activity, phytotoxicity rating SORHA: 0
[6]; 63 g ai/ha
  Pre-emerge herbicidal activity, phytotoxicity rating ABUTH: 0
[6]; 250 g ai/ha
  Pre-emerge herbicidal activity, phytotoxicity rating ABUTH: 20
[7]; 63 g ai/ha
  Pre-emerge herbicidal activity, phytotoxicity rating CASOB: 0
[7]; 250 g ai/ha
  Pre-emerge herbicidal activity, phytotoxicity rating CASOB: 0
[8]; 63 g ai/ha
  Pre-emerge herbicidal activity, phytotoxicity rating CHEAL: 60
[8]; 250 g ai/ha
  Pre-emerge herbicidal activity, phytotoxicity rating CHEAL: 100
[9]; 63 g ai/ha
  Pre-emerge phytotoxicity rating, crop damage CORN: 0
[9]; 250 g ai/ha
  Pre-emerge phytotoxicity rating, crop damage CORN: 0
[10]; 63 g ai/ha
  Pre-emerge phytotoxicity rating, crop damage RICE: 0
[10]; 250 g ai/ha
  Pre-emerge phytotoxicity rating, crop damage RICE: 20
[11]; 63 g ai/ha
  Pre-emerge herbicidal activity, phytotoxicity rating AMARE: 100
[11]; 250 g ai/ha
  Pre-emerge herbicidal activity, phytotoxicity rating AMARE: 100
[12]; Rate 63 g ai/ha
  Post-emerge Herbicidal Activity, phytotoxicity rating IPOHE: 30
[12]; Rate 250 g ai/ha
  Post-emerge Herbicidal Activity, phytotoxicity rating IPOHE: 50
[13]; Rate 63 g ai/ha
  Post-emerge Herbicidal Activity, phytotoxicity rating AMBEL: 70
[13]; Rate 250 g ai/ha
  Post-emerge Herbicidal Activity, phytotoxicity rating AMBEL: 70
[14]; Rate 63 g ai/ha
  Post-emerge Herbicidal Activity, phytotoxicity rating DIGSA: 90
[14]; Rate 250 g ai/ha
  Post-emerge Herbicidal Activity, phytotoxicity rating DIGSA: 100
[15]; Rate 63 g ai/ha
  Post-emerge Herbicidal Activity, phytotoxicity rating ECHCG: 100
[15]; Rate 250 g ai/ha
  Post-emerge Herbicidal Activity, phytotoxicity rating ECHCG: 100
[16]; Rate 63 g ai/ha
  Post-emerge Herbicidal Activity, phytotoxicity rating SETVI: 50
[16]; Rate 250 g ai/ha
  Post-emerge Herbicidal Activity, phytotoxicity rating SETVI: 70
[17]; Rate 63 g ai/ha
  Post-emerge Herbicidal Activity, phytotoxicity rating SORHA: 0
[17]; Rate 250 g ai/ha
  Post-emerge Herbicidal Activity, phytotoxicity rating SORHA: 20
[18]; Rate 63 g ai/ha
  Post-emerge Herbicidal Activity, phytotoxicity rating ABUTH: 50
[18]; Rate 250 g ai/ha
  Post-emerge Herbicidal Activity, phytotoxicity rating ABUTH: 100
[19]; Rate 63 g ai/ha
  Post-emerge Herbicidal Activity, phytotoxicity rating CASOB: 0
[19]; Rate 250 g ai/ha
  Post-emerge Herbicidal Activity, phytotoxicity rating CASOB: 60
[20]; Rate 63 g ai/ha
  Post-emerge Herbicidal Activity, phytotoxicity rating AMARE: 50
[20]; Rate 250 g ai/ha
  Post-emerge Herbicidal Activity, phytotoxicity rating AMARE: 100
[21]; Rate 63 g ai/ha
  Post-emerge Herbicidal Activity, phytotoxicity rating CHEAL: 50
[21]; Rate 250 g ai/ha
  Post-emerge Herbicidal Activity, phytotoxicity rating CHEAL: 90
[22]; Rate 63 g ai/ha
  Post-emerge phytotoxicity rating CORN (crop damage): 10
[22]; Rate 250 g ai/ha
  Post-emerge phytotoxicity rating CORN (crop damage): 50
[23]; Rate 63 g ai/ha
  Post-emerge phytotoxicity rating RICE (crop damage): 0
[23]; Rate 250 g ai/ha
  Post-emerge phytotoxicity rating RICE (crop damage): 30
